{"source": "paper PMC2920882", "about": "(BMC Cancer, 2010)", "key": {"VEGFR2": {"molecular_target": "T1, VEGFR2 (Homo sapiens, UniProt P35968)", "T1 construct": "purchased R&D Systems", "T1 sequence (P35968 20-1356)": "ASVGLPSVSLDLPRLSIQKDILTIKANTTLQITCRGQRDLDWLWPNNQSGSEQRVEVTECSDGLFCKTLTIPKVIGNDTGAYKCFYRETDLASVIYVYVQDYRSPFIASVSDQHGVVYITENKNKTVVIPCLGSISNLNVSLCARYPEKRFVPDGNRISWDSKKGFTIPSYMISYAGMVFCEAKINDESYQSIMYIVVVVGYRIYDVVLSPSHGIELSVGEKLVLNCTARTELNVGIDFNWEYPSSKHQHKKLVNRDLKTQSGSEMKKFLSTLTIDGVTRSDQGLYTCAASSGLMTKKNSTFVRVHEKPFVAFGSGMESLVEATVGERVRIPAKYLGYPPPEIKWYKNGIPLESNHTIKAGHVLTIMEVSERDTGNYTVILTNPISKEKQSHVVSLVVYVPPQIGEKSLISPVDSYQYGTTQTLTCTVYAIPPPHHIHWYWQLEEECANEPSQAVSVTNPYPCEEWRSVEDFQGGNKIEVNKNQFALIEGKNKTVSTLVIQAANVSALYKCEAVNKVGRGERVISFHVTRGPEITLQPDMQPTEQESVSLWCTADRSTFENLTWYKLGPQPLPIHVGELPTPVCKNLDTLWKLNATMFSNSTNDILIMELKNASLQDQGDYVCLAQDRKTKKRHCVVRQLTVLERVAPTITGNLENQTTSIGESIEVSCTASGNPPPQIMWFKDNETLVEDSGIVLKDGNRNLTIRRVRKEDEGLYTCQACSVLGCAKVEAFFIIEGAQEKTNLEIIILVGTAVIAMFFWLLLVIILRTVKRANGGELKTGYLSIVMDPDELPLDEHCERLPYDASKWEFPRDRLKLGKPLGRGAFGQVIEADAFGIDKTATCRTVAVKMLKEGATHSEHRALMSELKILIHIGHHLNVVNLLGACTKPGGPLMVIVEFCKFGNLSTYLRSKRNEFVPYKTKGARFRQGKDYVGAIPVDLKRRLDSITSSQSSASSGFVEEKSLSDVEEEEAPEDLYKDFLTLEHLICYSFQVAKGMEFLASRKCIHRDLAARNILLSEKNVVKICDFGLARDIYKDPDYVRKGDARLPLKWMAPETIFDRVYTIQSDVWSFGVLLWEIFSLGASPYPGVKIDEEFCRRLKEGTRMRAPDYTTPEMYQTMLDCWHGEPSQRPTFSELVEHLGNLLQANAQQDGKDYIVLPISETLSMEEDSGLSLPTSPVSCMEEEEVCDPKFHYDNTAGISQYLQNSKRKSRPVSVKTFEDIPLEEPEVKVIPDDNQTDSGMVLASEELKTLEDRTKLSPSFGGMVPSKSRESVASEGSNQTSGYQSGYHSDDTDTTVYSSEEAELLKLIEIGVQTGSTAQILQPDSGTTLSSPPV", "assay": "Fluorescence-based ELISA, VEGFR2 binding", "details": "vs GU40C4 (ref 12)", "experimental": "Wells were washed with 5 × 200 μL of PBS and fluorescence was measured at 520 nm using a plate reader (Fluostar Optima, BMG Laboratories, Durham, NC)."}, "Met-1 cells [1]": {"test_system": "Met-1 cells", "details": "2.5 μM GU81, 72 hours, serum-free DMEM, p < 0.05 vs SFM, 1-way ANOVA", "experimental": "Tumor-conditioned media (TCM) was collected and RNA harvested using TRIzol (Invitrogen) according to the manufacturer's directions at 24, 48, and 72 hours post-treatment. The quality of RNA was evaluated using spectrophotometry. The cDNA used for subsequent PCR was made using iScript (Bio-Rad Laboratories). The expression of VEGF was analyzed by quantitative real-time PCR using assay on demand from Applied Biosystems (Mm00437308_m1). […] Quantitative real-time PCR was performed in a reaction volume of 20 μL of cDNA and each reaction was performed in triplicate. We used the comparative Ct method to compute relative expression values. TCM was diluted 1:5 prior to analysis for VEGF concentration using the Quantikine Mouse VEGF Immunoassay (R&D Systems).\nResults are expressed as mean ± SEM."}, "MMTV-PyMT tumors [2]": {"test_system": "MMTV-PyMT tumors", "assay": "Perilipin and adiponectin immunohistochemistry of MMTV-PyMT tumors (tumor fat content)", "details": "for tumor fat content (residual adipose tissue): MMTV-PyMT tumors after 19 days treatment, H&E and adipocyte markers"}, "MMTV-PyMT tumors [3]": {"test_system": "MMTV-PyMT tumors", "assay": "Tumor VEGF immunohistochemistry", "details": "percent VEGF positive area, vs control, p ≤ 0.05 for GU81 alone, t-test; 3 animals/group, 5 sections/animal"}, "MMTV-PyMT tumors [4]": {"test_system": "MMTV-PyMT tumors", "assay": "H&E histology of MMTV-PyMT tumors", "details": "formalin-fixed tumors after 19 days treatment"}, "[5]": {"test_system": "MMTV-PyMT transgenic model of breast cancer", "details": "cited from earlier work"}, "HUVEC": {"test_system": "HUVEC", "details": "when compared to GU40C4"}, "MMTV-PyMT tumors [6]": {"test_system": "MMTV-PyMT tumors", "assay": "Endomucin immunohistochemistry (vessel number, vascular area, vessel size)"}, "VEGFR2 (PAE-KDR cells)": {"molecular_target": "T2, VEGFR2 (PAE-KDR cells) (Homo sapiens, UniProt P35968)", "T2 construct": "host or cells: PAE-KDR cells", "T2 sequence (P35968 20-1356)": "as above", "assay": "VEGFR2 autophosphorylation assay, PAE-KDR cells", "format": "cell-based", "experimental": "Experiments were conducted using PAE-KDR (Sibtech Inc., Brookfield, CT) and HUVEC (Sciencecell, Carlsbad, CA) cells. […] Cells were harvested with lysis buffer, and lysates were separated by SDS-PAGE and transferred to PVDF membranes. Membranes were probed with anti phospho-VEGF receptor 2 (Tyr1175, 19A10) or total anti-VEGFR2 primary antibodies (Cell Signaling Technology, Danvers, MA) and subsequently developed with appropriate HRP-conjugated secondary antibody (BioRad Laboratories, Hercules, CA) followed by enhanced chemiluminescent detection (Pierce)."}, "Met-1 cells [7]": {"test_system": "Met-1 cells", "details": "GU81 treatment, mRNA and protein"}, "[8]": {"test_system": "MMTV-PyMT transgenic model of breast cancer", "assay": "MMTV-PyMT breast cancer therapy study: tumor volume, tumor weight, efficacy", "details": "for tumor volume vs control: MMTV-PyMT mice, 19 days from age 6 weeks, GU81 260 μg/day osmotic pump, doxorubicin 2 mg/kg once weekly, 2-way ANOVA; for total tumor weight vs control: at sacrifice (age 60 days), p ≤ 0.01 for combination, 1-way ANOVA"}, "MMTV-PyMT tumors [9]": {"test_system": "MMTV-PyMT tumors", "assay": "F4/80 macrophage infiltration immunohistochemistry", "details": "percent F4/80 positive area, p ≤ 0.05 vs control, t-test; 3 animals/group, 5 sections/animal"}, "[10]": {"test_system": "4T1 syngenic breast cancer model", "details": "4T1 syngeneic model; cited from earlier work"}, "MMTV-PyMT tumors [11]": {"test_system": "MMTV-PyMT tumors", "details": "cited from earlier work", "description": "Macrophage infiltration is associated with poor prognosis in a number of different tumor types, including breast cancer. […] This increase in macrophage infiltration is puzzling ..."}, "MMTV-PyMT tumors [12]": {"test_system": "MMTV-PyMT tumors"}}, "note": "“Also recorded” adds a separate entry of the source. Numbered stars: 1 amine (or outer) side, 2 acyl side, 3 side chain; on linkers, the order of the positions; unused ones are H or OH. Bridge positions count the residues as written; N and C are the ends. Square brackets hold non-standard residues; d marks the D form. Peptide text beside a SMILES is read from it. I, II: the chains in the order shown. Gly(N-piperonyl) = O=C(O)CNCc1ccc2c(c1)OCO2; X1 = CC(CN(CC(=O)[*:2])[*:1])c1ccccc1; Nleu = CC(C)CNCC(=O)O; Nlys = NCCCCNCC(=O)O; Ahx = NCCCCCC(=O)O; Nme = COCCNCC(=O)O; βAla = NCCC(=O)O", "data": [{"smiles": "COCCN(CC(=O)N(CC(=O)N(CC(=O)N(CCCCN)CC(=O)N(CC(=O)N(CCCCN)CC(=O)N(CCCCN)CC(=O)NCCCCCC(=O)NCCC(=O)N[C@@H](CCCCNC(=O)CN(CCCCN)C(=O)CN(CCCCN)C(=O)CN(CC(C)C)C(=O)CN(CCCCN)C(=O)CN(Cc1ccc2c(c1)OCO2)C(=O)CN(CC(C)c1ccccc1)C(=O)CN(CCOC)C(=O)CN(CC(C)C)C(=O)CNCCCCN)C(N)=O)CC(C)C)Cc1ccc2c(c1)OCO2)CC(C)c1ccccc1)C(=O)CN(CC(C)C)C(=O)CNCCCCN", "note": "(stereo partly drawn) [GU81] (I: H-[Nlys][Nleu][Nme][X1][Gly(N-piperonyl)][Nlys][Nleu][Nlys][Nlys][Ahx][βAla]K-NH2 / II: H-[Nlys][Nleu][Nme][X1][Gly(N-piperonyl)][Nlys][Nleu][Nlys][Nlys]; amide I:12-II:C)", "values": [{"measurement": "improvement of KD over the original GU40C4", "setting": "VEGFR2", "value": "3 -fold"}, {"measurement": "VEGF mRNA level in Met-1 cells", "setting": "Met-1 cells [1]", "value": "significantly increased after 72 hours of GU81 treatment; also recorded: significant increase in VEGF gene transcription following 72 hrs of GU81 treatment"}, {"measurement": "tumor fat content (residual adipose tissue)", "setting": "MMTV-PyMT tumors [2]", "value": "no effect on tumor weight, histology, tumor fat content, or tumor growth index"}, {"measurement": "tumor VEGF level", "setting": "MMTV-PyMT tumors [3]", "value": "increased tumor-VEGF levels and macrophage infiltration; also recorded: significantly increased levels of VEGF compared to tumors from control-treated mice; also recorded: increased tumor VEGF expression in this model"}, {"measurement": "tumor histology / progression / invasion", "setting": "MMTV-PyMT tumors [4]", "value": "no effect on tumor weight, histology, tumor fat content, or tumor growth index; also recorded: did not alter this histology"}, {"measurement": "tumor histology / progression / invasion", "setting": "MMTV-PyMT tumors [4]; listed as GUI81", "value": "clearly invasive adenocarcinomas"}, {"measurement": "in vivo efficacy as a single agent, MMTV-PyMT model", "setting": "[5]", "value": "does not demonstrate in vivo efficacy as a single agent in the MMTV-PyMT model of breast cancer"}, {"measurement": "expected inhibition of endothelial cell proliferation", "setting": "HUVEC", "value": "more potent inhibitor of endothelial cell proliferation when compared to GU40C4"}, {"measurement": "total vessel number", "setting": "MMTV-PyMT tumors [6]; endomucin, vessels per 200× field, 3 animals/group, 5 sections/animal", "value": "no effect on total vessel number; also recorded: do not see a decrease in vessel number"}, {"measurement": "total vascular area, GU81 alone", "setting": "MMTV-PyMT tumors [6]; percent endomucin positive area per 200× field, vs control, p < 0.001, t-test", "value": "able to significantly to reduce total vascular area as a single agent; also recorded: decreased total vascular area; also recorded: reduces total vascular area and vessel size; also recorded: decrease in total vascular area and vessel size"}, {"measurement": "vessel size", "setting": "MMTV-PyMT tumors [6]; percent fluorescent area divided by total vessel number, vs control, t-test", "value": "reduces total vascular area and vessel size; also recorded: decrease in total vascular area and vessel size"}, {"measurement": "block of VEGF-induced VEGFR2 phosphorylation", "setting": "VEGFR2 (PAE-KDR cells); PAE-KDR cells, increasing concentrations of GU81 15 min, VEGF 1.3 nM 7 min, 37°C, Western blot", "value": "effectively blocks VEGF-induced VEGFR2 phosphorylation of PAE-KDR cells in a dose-dependent manner"}, {"measurement": "in vitro efficacy", "setting": "VEGFR2 (PAE-KDR cells); abstract: compared to GU40C4, discussion: in vitro biological efficacy", "value": "increased in vitro efficacy compared to GU40C4; also recorded: potent in vitro biological efficacy"}, {"measurement": "VEGF expression in Met-1 cells (discussion)", "setting": "Met-1 cells [7]", "value": "increased VEGF expression following treatment with GU81"}, {"measurement": "therapeutic efficacy in MMTV-PyMT model", "setting": "[8]; GU81 260 μg/day alone or with doxorubicin 2 mg/kg once weekly, 19 days", "value": "little therapeutic efficacy when used alone; also recorded: not effective as a single agent in the MMTV-PyMT model of breast cancer"}, {"measurement": "tumor volume vs control", "setting": "[8]", "value": "did not have a significant effect on either tumor volume or tumor weight"}, {"measurement": "total tumor weight vs control", "setting": "[8]", "value": "no effect on tumor weight, histology, tumor fat content, or tumor growth index; also recorded: did not have a significant effect on either tumor volume or tumor weight"}, {"measurement": "macrophage infiltration vs control", "setting": "MMTV-PyMT tumors [9]", "value": "increased tumor-VEGF levels and macrophage infiltration; also recorded: significantly increased following treatment with GU81; also recorded: induces macrophage infiltration in vivo"}, {"measurement": "tumor size, 4T1 model, single agent", "setting": "[10]", "value": "effectively reduces tumor size and MVD"}, {"measurement": "macrophage infiltration, single agent", "setting": "MMTV-PyMT tumors [11]", "value": "increases macrophage infiltration as a single-agent"}]}, {"smiles": "COc1cccc2c1C(=O)c1c(O)c3c(c(O)c1C2=O)C[C@@](O)(C(=O)CO)C[C@@H]3O[C@H]1C[C@H](N)[C@H](O)[C@H](C)O1", "note": "[doxorubicin, reference compound]", "values": [{"measurement": "adiponectin staining vs control", "setting": "MMTV-PyMT tumors [2]; Cy3 positive area, vs control, p≤0.05, t-test", "value": "significantly increased"}, {"measurement": "tumor fat content (residual adipose tissue)", "setting": "MMTV-PyMT tumors [2]", "value": "no effect on tumor weight, histology, tumor fat content, or tumor growth index"}, {"measurement": "tumor VEGF level", "setting": "MMTV-PyMT tumors [3]", "value": "neither treatment with doxorubicin alone or in combination with GU81 had significant effects on VEGF expression"}, {"measurement": "tumor histology / progression / invasion", "setting": "MMTV-PyMT tumors [4]", "value": "no effect on tumor weight, histology, tumor fat content, or tumor growth index; also recorded: displayed areas of invasive carcinoma; although the invasive component of the tumor was reduced when compared to control and GU81-treated animals; also recorded: clearly invasive adenocarcinomas"}, {"measurement": "cytostatic / cytocidal character of the therapy", "setting": "MMTV-PyMT tumors [12]; from proliferation, apoptosis and growth index", "value": "cytostatic"}, {"measurement": "tumor growth index vs control", "setting": "MMTV-PyMT tumors [12]; phospho-histone-3 / cleaved caspase-3 positive cells per 200× field, vs control, p ≤ 0.05 for combination, 1-way ANOVA", "value": "no effect on tumor weight, histology, tumor fat content, or tumor growth index"}, {"measurement": "phospho-histone-3 positive cells (proliferation) vs control", "setting": "MMTV-PyMT tumors [12]; vs control, p ≤ 0.01 (doxorubicin, combination), 1-way ANOVA, 3 animals/group, 5 sections/animal", "value": "fewer phospho-histone-3 positive cells when compared to tumors from control treated animals"}, {"measurement": "cleaved (active) caspase-3 positive cells (apoptosis) vs control", "setting": "MMTV-PyMT tumors [12]; vs control, p ≤ 0.05 (doxorubicin), 1-way ANOVA, 3 animals/group, 5 sections/animal", "value": "significantly fewer active caspase-3 positive cells when compared to tumors from control-treated animals"}, {"measurement": "tumor volume vs control", "setting": "[8]", "value": "significantly reduced tumor volume compared to control treated animals"}, {"measurement": "total tumor weight vs control", "setting": "[8]", "value": "no effect on tumor weight, histology, tumor fat content, or tumor growth index"}]}]}
